Assay results from ChEMBL document CHEMBL1201862, “PubChem BioAssay data set” (2004).
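Results reflect a 48-hour exposure of cells in 96-well plates to compound at five concentrations. GI50 = concentration required for 50% inhibition of growth.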 Calls of active or inactive are those of the source. Rule as the data show it: active = GI50 up to about 1.1 µM and inactive = higher.

Assays:
Experiment in all cases: inhibition of tumour cell growth, NCI panel, 48 h
A498 = test system: A498
COLO 205 = test system: COLO 205
UO-31 = test system: UO-31
K562 = test system: K562
OVCAR-3 = test system: OVCAR-3
SK-MEL-5 = test system: SK-MEL-5
SR = test system: SR
SNB-78 = test system: SNB-78
XF498 = test system: XF498
SF-295 = test system: SF-295
ACHN = test system: ACHN
NCI-H226 = test system: NCI-H226
HOP-92 = test system: HOP-92
HT-29 = test system: HT-29
MOLT-4 = test system: MOLT-4
SK-MEL-28 = test system: SK-MEL-28
786-0 = test system: 786-0
UACC-62 = test system: UACC-62
M14 = test system: M14
SF-539 = test system: SF-539
SN12C = test system: SN12C
OVCAR-4 = test system: OVCAR-4
DLD-1 = test system: DLD-1
HL-60 = test system: HL-60
HCC 2998 = test system: HCC 2998
SW-620 = test system: SW-620
EKVX = test system: EKVX
RXF 631 = test system: RXF 631
IGROV-1 = test system: IGROV-1
Malme-3M = test system: Malme-3M
SK-OV-3 = test system: SK-OV-3
HOP-18 = test system: HOP-18
U-251 = test system: U-251
RXF 393 = test system: RXF 393
RPMI-8226 = test system: RPMI-8226
OVCAR-8 = test system: OVCAR-8
M19-MEL = test system: M19-MEL
SF-268 = test system: SF-268
HCT-116 = test system: HCT-116
DMS-273 = test system: DMS-273
LXFL 529 = test system: LXFL 529
SNB-19 = test system: SNB-19
KM-20L2 = test system: KM-20L2
HCT-15 = test system: HCT-15
CCRF-CEM = test system: CCRF-CEM
NCI-H23 = test system: NCI-H23
LOX IMVI = test system: LOX IMVI
NCI-H522 = test system: NCI-H522
A549 = test system: A549
UACC-257 = test system: UACC-257
SNB-75 = test system: SNB-75
NCI-H460 = test system: NCI-H460
OVCAR-5 = test system: OVCAR-5
CAKI-1 = test system: CAKI-1
HOP-62 = test system: HOP-62
KM12 = test system: KM12
TK-10 = test system: TK-10
SK-MEL-2 = test system: SK-MEL-2

C/C(CC(=O)N(C(C)C)C(C)C)=N\NC(=O)c1ccncc1
GI50 (A498): > 100 µM (inactive)
GI50 (COLO 205): > 100 µM (inactive)
GI50 (UO-31): > 100 µM (inactive)
GI50 (K562): > 100 µM (inactive)
GI50 (OVCAR-3): > 100 µM (inactive)
GI50 (SK-MEL-5): > 100 µM (inactive)
GI50 (SR): > 100 µM (inactive)
GI50 (SNB-78): > 100 µM (inactive)
GI50 (XF498): > 100 µM (inactive)
GI50 (SF-295): > 100 µM (inactive)
GI50 (ACHN): > 100 µM (inactive)
GI50 (NCI-H226): > 100 µM (inactive)
GI50 (HOP-92): > 100 µM (inactive)
GI50 (HT-29): > 100 µM (inactive)
GI50 (MOLT-4): > 100 µM (inactive)
GI50 (SK-MEL-28): > 100 µM (inactive)
GI50 (786-0): > 100 µM (inactive)
GI50 (UACC-62): > 100 µM (inactive)
GI50 (M14): > 100 µM (inactive)
GI50 (SF-539): > 100 µM (inactive)
GI50 (SN12C): > 100 µM (inactive)
GI50 (OVCAR-4): > 100 µM (inactive)
GI50 (DLD-1): > 100 µM (inactive)
GI50 (HL-60): > 100 µM (inactive)
GI50 (HCC 2998): > 100 µM (inactive)
GI50 (SW-620): > 100 µM (inactive)
GI50 (EKVX): > 100 µM (inactive)
GI50 (RXF 631): > 100 µM (inactive)
GI50 (IGROV-1): > 100 µM (inactive)
GI50 (Malme-3M): > 100 µM (inactive)
GI50 (SK-OV-3): > 100 µM (inactive)
GI50 (HOP-18): > 100 µM (inactive)
GI50 (U-251): > 100 µM (inactive)
GI50 (RXF 393): > 100 µM (inactive)
GI50 (RPMI-8226): > 100 µM (inactive)
GI50 (OVCAR-8): > 100 µM (inactive)
GI50 (M19-MEL): > 100 µM (inactive)
GI50 (SF-268): > 100 µM (inactive)
GI50 (HCT-116): > 100 µM (inactive)
GI50 (DMS-273): > 100 µM (inactive)
GI50 (LXFL 529): > 100 µM (inactive)
GI50 (SNB-19): > 100 µM (inactive)
GI50 (KM-20L2): > 100 µM (inactive)
GI50 (HCT-15): > 100 µM
GI50 (CCRF-CEM): > 100 µM (inactive)
GI50 (NCI-H23): > 100 µM (inactive)
GI50 (LOX IMVI): > 100 µM (inactive)
GI50 (NCI-H522): > 100 µM (inactive)
GI50 (A549): > 100 µM (inactive)
GI50 (UACC-257): > 100 µM (inactive)
GI50 (SNB-75): 95.7 µM (inactive)

COc1cc(C(=O)C/C(CCCC(=O)Nc2ccccc2[N+](=O)[O-])=N/NC(=O)c2cc3ccccc3cc2O)ccc1O
GI50 (A498): > 100 µM (inactive)
GI50 (COLO 205): 21.7 µM (inactive)
GI50 (UO-31): 13.9 µM (inactive)
GI50 (K562): 20.2 µM (inactive)
GI50 (OVCAR-3): 16.1 µM (inactive)
GI50 (SK-MEL-5): 34.4 µM (inactive)
GI50 (NCI-H460): 40.6 µM (inactive)
GI50 (SNB-78): > 63.8 µM (inactive)
GI50 (XF498): > 100 µM (inactive)
GI50 (SF-295): 44.4 µM (inactive)
GI50 (ACHN): 28.9 µM (inactive)
GI50 (NCI-H226): > 81.7 µM (inactive)
GI50 (HOP-92): 32.7 µM (inactive)
GI50 (HT-29): 41.9 µM (inactive)
GI50 (MOLT-4): 26.1 µM (inactive)
GI50 (SK-MEL-28): 58.2 µM (inactive)
GI50 (OVCAR-5): 46.3 µM (inactive)
GI50 (786-0): 32.4 µM (inactive)
GI50 (UACC-62): 17.6 µM (inactive)
GI50 (M14): 20.8 µM (inactive)
GI50 (SF-539): 37.9 µM (inactive)
GI50 (SN12C): 44 µM (inactive)
GI50 (CAKI-1): > 68.9 µM (inactive)
GI50 (OVCAR-4): 38.3 µM (inactive)
GI50 (DLD-1): 36.7 µM (inactive)
GI50 (HL-60): 0.556 µM (active)
GI50 (HCC 2998): 28.9 µM (inactive)
GI50 (SW-620): 46.5 µM (inactive)
GI50 (EKVX): 16.5 µM (inactive)
GI50 (RXF 631): > 71.4 µM (inactive)
GI50 (HOP-62): 94.8 µM (inactive)
GI50 (IGROV-1): 34.4 µM (inactive)
GI50 (Malme-3M): 29.2 µM (inactive)
GI50 (SK-OV-3): 49.7 µM (inactive)
GI50 (HOP-18): 6.24 µM (inactive)
GI50 (U-251): 52.1 µM (inactive)
GI50 (RXF 393): > 71 µM (inactive)
GI50 (RPMI-8226): > 46.9 µM (inactive)
GI50 (OVCAR-8): 26.8 µM (inactive)
GI50 (KM12): 24.5 µM (inactive)
GI50 (SF-268): 23.8 µM (inactive)
GI50 (HCT-116): 34.4 µM (inactive)
GI50 (DMS-273): 15.6 µM (inactive)
GI50 (SNB-19): > 80.2 µM (inactive)
GI50 (KM-20L2): 27.4 µM (inactive)
GI50 (TK-10): 52.5 µM (inactive)
GI50 (HCT-15): 20.2 µM
GI50 (CCRF-CEM): 8 µM (inactive)
GI50 (NCI-H23): 41.4 µM (inactive)
GI50 (LOX IMVI): 23.9 µM (inactive)
GI50 (NCI-H522): 36.6 µM (inactive)
GI50 (A549): 54.5 µM (inactive)
GI50 (UACC-257): 27.7 µM (inactive)
GI50 (SNB-75): > 91.2 µM (inactive)
GI50 (SK-MEL-2): > 42.7 µM (inactive)

Cc1ccccc1C(=O)N1CCN(C(=O)c2ccccc2C)CC1
GI50 (A498): > 100 µM (inactive)
GI50 (UO-31): > 100 µM (inactive)
GI50 (K562): > 100 µM (inactive)
GI50 (OVCAR-3): > 100 µM (inactive)
GI50 (SK-MEL-5): > 100 µM (inactive)
GI50 (NCI-H460): > 100 µM (inactive)
GI50 (SR): > 100 µM (inactive)
GI50 (SNB-78): > 100 µM (inactive)
GI50 (XF498): > 100 µM (inactive)
GI50 (SF-295): > 100 µM (inactive)
GI50 (ACHN): > 100 µM (inactive)
GI50 (HOP-92): > 100 µM (inactive)
GI50 (HT-29): > 100 µM (inactive)
GI50 (MOLT-4): > 100 µM (inactive)
GI50 (SK-MEL-28): > 100 µM (inactive)
GI50 (OVCAR-5): > 100 µM (inactive)
GI50 (786-0): > 100 µM (inactive)
GI50 (UACC-62): > 100 µM (inactive)
GI50 (M14): > 100 µM (inactive)
GI50 (SF-539): > 100 µM (inactive)
GI50 (SN12C): > 100 µM (inactive)
GI50 (CAKI-1): > 100 µM (inactive)
GI50 (OVCAR-4): > 100 µM (inactive)
GI50 (DLD-1): > 100 µM (inactive)
GI50 (HL-60): > 100 µM (inactive)
GI50 (HCC 2998): > 100 µM (inactive)
GI50 (SW-620): > 100 µM (inactive)
GI50 (EKVX): > 100 µM (inactive)
GI50 (RXF 631): > 100 µM (inactive)
GI50 (HOP-62): > 100 µM (inactive)
GI50 (IGROV-1): > 100 µM (inactive)
GI50 (SK-OV-3): > 100 µM (inactive)
GI50 (HOP-18): > 100 µM (inactive)
GI50 (U-251): > 100 µM (inactive)
GI50 (RXF 393): > 100 µM (inactive)
GI50 (RPMI-8226): > 100 µM (inactive)
GI50 (OVCAR-8): > 100 µM (inactive)
GI50 (M19-MEL): > 100 µM (inactive)
GI50 (KM12): > 100 µM (inactive)
GI50 (SF-268): > 100 µM (inactive)
GI50 (HCT-116): > 100 µM (inactive)
GI50 (DMS-273): > 100 µM (inactive)
GI50 (LXFL 529): > 100 µM (inactive)
GI50 (SNB-19): > 100 µM (inactive)
GI50 (KM-20L2): > 100 µM (inactive)
GI50 (TK-10): > 100 µM (inactive)
GI50 (HCT-15): > 100 µM
GI50 (CCRF-CEM): > 100 µM (inactive)
GI50 (NCI-H23): > 100 µM (inactive)
GI50 (LOX IMVI): > 100 µM (inactive)
GI50 (NCI-H522): > 100 µM (inactive)
GI50 (A549): > 100 µM (inactive)
GI50 (UACC-257): > 100 µM (inactive)
GI50 (SNB-75): > 100 µM (inactive)
